The text below walks through data of US20230124087A1, “KV3 ENHANCERS FOR THE TREATMENT OF COGNITIVE DISORDERS” (Hoffmann-La Roche Inc., priority 2020, published 2023).

In general, EC50 refers to the concentration giving half of the maximal effect.

This experiment addresses T1, Kv3.1 (Homo sapiens, UniProt P48547).
T1 construct: expressed in transfected cells
T1 sequence (P48547 1-511): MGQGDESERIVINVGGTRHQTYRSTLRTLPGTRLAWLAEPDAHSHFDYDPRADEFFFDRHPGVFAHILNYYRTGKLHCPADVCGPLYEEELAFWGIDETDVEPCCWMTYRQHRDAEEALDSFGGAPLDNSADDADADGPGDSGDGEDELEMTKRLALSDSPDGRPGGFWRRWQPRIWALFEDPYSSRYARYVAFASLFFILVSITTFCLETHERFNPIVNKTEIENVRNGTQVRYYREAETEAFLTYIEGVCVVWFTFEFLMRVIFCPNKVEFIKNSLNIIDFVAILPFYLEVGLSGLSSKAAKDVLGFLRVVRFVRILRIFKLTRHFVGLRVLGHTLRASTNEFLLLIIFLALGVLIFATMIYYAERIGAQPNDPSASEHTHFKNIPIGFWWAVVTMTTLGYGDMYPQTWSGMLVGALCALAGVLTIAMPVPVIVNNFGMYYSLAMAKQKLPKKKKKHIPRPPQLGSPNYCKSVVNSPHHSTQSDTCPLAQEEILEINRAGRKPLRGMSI
The experiment in a line: Kv3.1 automated patch clamp (Qube) cellular electrophysiology assay. It counts as cell-based. From the text: In vitro, high-throughput cellular electrophysiology was employed to detect voltage-dependence of compounds in single concentration screening and IC50 determination for library and medicinal chemistry profiling compounds in 384 well plates.
HEK-293 cell lines stably expressing coding DNA for Kv3.1, 3.2, 3.3, and 3.4 were validated on an automated patch clamp (APC) platform, Qube from Sophion/Denmark. Cell cultures were maintained in DMEM cell growth media containing FBS and appropriate antibiotics at 37° C., 5% CO2 for a maximum of 20 passages. Intra- and extracellular (w. glucose) HEPES buffers containing various monovalent and divalent cations were adjusted to pH 7.2 and 7.4 respectively. Cells were harvested at 75% confluency and resuspended in extracellular buffer and added to wells. Negative pressure was applied to establish whole cell recording by APC.
Currents through activated channels were measured directly by APC by employing depolarization voltage steps. Baseline currents were established for the voltage-dependence protocols using a −80 mV holding potential and multiple test pulses at +10 mV or by 10 mV steps from −80 mV to +40 mV, respectively. Test compounds were added after baseline recordings followed by a 10 min incubation, and voltage-dependency protocol recordings. Data was corrected for baseline and leak currents (well based) and normalized for % potentiation (plate based). Two previously reported Kv3 positive modulators of varying potencies were used for run to run and plate to plate quality controls. A non-selective and potent positive modulator was used as a positive control. Percent potentiation was analyzed at −20 mV of the voltage-dependency protocol and voltage shift in channel activation was analyzed using the voltage step protocol from −80 mV to +40 mV. Selectivity was assessed against Kv3.2, Kv3.3, and Kv3.4 overexpressing cell lines using similar methods.
Background: Patch clamp records ionic current or voltage across a cell membrane.
For the compound `CCc1cc(Oc2ccc(-n3c(=O)[nH]c4cccnc43)cn2)ccc1C#N` [Example 49, 2-ethyl-4-[[5-(2-oxo-1H-imidazo[4,5-b]pyridin-3-yl)-2-pyridyl]oxy]benzonitrile], the concentration giving a half-maximal response (EC50) is 4.1 µM. In the case of `Cc1ccc(Oc2ccc(-n3c(=O)[nH]c4cncnc43)cn2)cc1Cl` [Example 50, 9-[6-(3-chloro-4-methyl-phenoxy)-3-pyridyl]-7H-purin-8-one], the EC50 was 12.2 µM. On to `CC(C)(C)c1cc(C#N)ccc1Oc1ccc(-n2c(=O)[nH]c3cccnc32)cc1F` [Example 51, 3-tert-butyl-4-[2-fluoro-4-(2-oxo-1H-imidazo[4,5-b]pyridin-3-yl)phenoxy]benzonitrile], for which the EC50 is 12.7 µM.

For `CC(C)c1cc(C#N)ccc1O[C@H]1C[C@H](n2c(=O)[nH]c3cccnc32)C1` [Example 52, 3-isopropyl-4-[3-(2-oxo-1H-imidazo[4,5-b]pyridin-3-yl)cyclobutoxy]benzonitrile], the EC50 is 17.4 µM. As to `COc1cc(O[C@H]2C[C@H](n3c(=O)[nH]c4cnccc43)C2)ccc1C` [Example 53, 1-[3-(3-methoxy-4-methyl-phenoxy)cyclobutyl]-3H-imidazo[4,5-c]pyridin-2-one], the EC50 came out at 3.6 µM.
